Laboratory results taken from a compilation of properties of binary mixtures (doi:10.1016/j.jct.2022.106952).

Experiment: xn = mol fraction of the nth substance listed
Settings: 101.3 kPa

CCCC[n+]1ccn(C)c1.F[P-](F)(F)(F)(F)F + CCCCCCCCN1CCCC1=O
x1 = 1
Settings	speed of sound [m/s]
308.15 K	1419.8
313.15 K	1408.2
318.15 K	1396.8
323.15 K	1385.6

CCCCCCCCN1CCCC1=O + CCCC[n+]1ccn(C)c1.F[P-](F)(F)(F)(F)F
speed of sound [m/s]
Settings	303.15 K	308.15 K	313.15 K	318.15 K	323.15 K
x2 = 0	1433.6	1416.3	1399.1	1382.1	1365.2
x2 = 0.0531	1430	1413.2	1396.4	1379.8	1363.3
x2 = 0.1034	1425.4	1408.9	1392.5	1376.3	1360.2
x2 = 0.1513	1421.4	1405.2	1389.2	1373.3	–
x2 = 0.2034	1417.6	1401.8	1386.2	1370.7	1355.3
x2 = 0.3009	1412.1	–	1382	1367.1	1352.4
x2 = 0.405	–	1393.9	1379.6	1365.4	1351.4
x2 = 0.5042	–	1393.1	1379.4	1365.8	1352.3
x2 = 0.5996	1407.7	–	–	1367.9	–
x2 = 0.6991	1410.4	1397.4	1384.6	1372.1	1359.6
x2 = 0.8029	1415.4	1402.9	1390.6	–	1366.5
x2 = 0.8451	–	1405.7	–	1381.7	1369.9
x2 = 0.8927	1421.5	1409.4	1397.5	–	1374.2
x2 = 0.9513	1426.6	1414.7	1403	1391.4	1380.1
